Data as given in patent US7790732B2, “5-Chloro-4-alkyl-3,4-dihydro-quinazolin-2-ylamine derivatives” (Hoffman-La Roche Inc., priority 2005, dated 2010).

Biological target: T1, recombinant human 5-HT5A receptor (Homo sapiens, UniProt P47898)
T1 construct: expressed in transfected cells; host or cells: HEK-EBNA (Human Embryonic Kidney-EBNA) cells, transient cDNA expression, membranes
Assay: [3H]LSD radioligand binding assay, recombinant human 5-HT5A receptor in HEK-EBNA cell membranes
Settings: [3H]LSD approximately 1 nM; membranes from HEK-EBNA cells; Ki from IC50 by the Cheng-Prussoff equation
Procedure: A [^3H] LSD radioligand binding assay was used to determine the affinity of the compounds for the recombinant human 5-HT5A receptor in membranes from transiently (cDNA) expressed 5-HT5A receptors in Human Embryonic Kidney-EBNA (HEK-EBNA) cells. Assay buffer consisted of Tris (50 mM) buffer containing 1 mM EGTA, 10 mM MgCl2 (pH 7.4) and 10 μM pargyline. The binding assay was carried out in 96-well-plates in the presence of [^3H]LSD (approximately 1 nM), approximately 2 μg/well of membrane protein, and 0.5 mg of Ysi-poly-1-lysine SPA beads in a final volume of 200 μl of buffer. Non-specific binding was defined using methiothepin 2 μM. Compounds were tested at 10 concentrations. All assays were conducted in duplicate and repeated at least two times. Assay plates were incubated for 120 min at room temperature before centrifugation. Bound ligand was determined using a Packard Topcount scintillation counter. IC50 values were calculated using a non-linear curve fitting program, and Ki values were calculated using the Cheng-Prussoff equation.

T1 sequence (P47898 whole entry): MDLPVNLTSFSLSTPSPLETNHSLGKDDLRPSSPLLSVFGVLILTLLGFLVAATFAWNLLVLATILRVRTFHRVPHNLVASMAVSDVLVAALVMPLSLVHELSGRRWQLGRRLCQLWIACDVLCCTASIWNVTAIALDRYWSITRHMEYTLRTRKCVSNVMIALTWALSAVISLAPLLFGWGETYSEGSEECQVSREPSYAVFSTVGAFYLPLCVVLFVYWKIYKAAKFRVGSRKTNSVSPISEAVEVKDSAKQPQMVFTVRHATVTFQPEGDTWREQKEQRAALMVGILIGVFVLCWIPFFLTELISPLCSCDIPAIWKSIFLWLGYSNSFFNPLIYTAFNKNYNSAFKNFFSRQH

Ki [nM]	SMILES
5.13	CC1NC(N)=Nc2cccc(Cl)c21 (stereo not shown) [Example 1, 5-Chloro-4-methyl-3,4-dihydro-quinazolin-2-ylamine]
10.8	CNC1=Nc2cccc(Cl)c2C(C)N1 (stereo not shown) [Example 2, (5-Chloro-4-methyl-3,4-dihydro-quinazolin-2-yl)-methyl-amine]
15.5	CC1NC(NC2CCC2)=Nc2cccc(Cl)c21 (stereo not shown) [Example 3, (5-Chloro-4-methyl-3,4-dihydro-quinazolin-2-yl)-cyclobutyl-amine]
10.1	CC1NC(NCC(F)F)=Nc2cccc(Cl)c21 (stereo not shown) [Example 5, (5-Chloro-4-methyl-3,4-dihydro-quinazolin-2-yl)-(2,2-difluoro-ethyl)-amine]
2	CC1NC(N)=Nc2ccc(Cl)c(Cl)c21 (stereo not shown) [Example 8, 5,6-Dichloro-4-methyl-3,4-dihydro-quinazolin-2-ylamine]
6.34	CNC1=Nc2ccc(Cl)c(Cl)c2C(C)N1 (stereo not shown) [Example 9, (5,6-Dichloro-4-methyl-3,4-dihydro-quinazolin-2-yl)-methyl-amine]
5.67	CC1NC(NCC(F)F)=Nc2ccc(Cl)c(Cl)c21 (stereo not shown) [Example 10, (5,6-Dichloro-4-methyl-3,4-dihydro-quinazolin-2-yl)-(2,2-difluoro-ethyl)-amine]
6.9	CC1NC(NC2CCC2)=Nc2ccc(Cl)c(Cl)c21 (stereo not shown) [Example 15, Cyclobutyl-(5,6-dichloro-4-methyl-3,4-dihydro-quinazolin-2-yl)-amine]
8.87	CC(=O)NCCNC1=Nc2ccc(Cl)c(Cl)c2C(C)N1 (stereo not shown) [Example 16, N-[2-(5,6-Dichloro-4-methyl-3,4-dihydro-quinazolin-2-ylamino)-ethyl]-acetamide]
13.9	CCCCCNC1=Nc2ccc(Cl)c(Cl)c2C(C)N1 (stereo not shown) [Example 18, (5,6-Dichloro-4-methyl-3,4-dihydro-quinazolin-2-yl)-pentyl-amine]
6.9	COCCCNC1=Nc2ccc(Cl)c(Cl)c2C(C)N1 (stereo not shown) [Example 19, (5,6-Dichloro-4-methyl-3,4-dihydro-quinazolin-2-yl)-(3-methoxy-propyl)-amine]
17.8	CC1NC(NCC2COCCO2)=Nc2ccc(Cl)c(Cl)c21 (stereo not shown) [Example 21, (5,6-Dichloro-4-methyl-3,4-dihydro-quinazolin-2-yl)-[1,4]dioxan-2-ylmethyl-amine]
5.85	CC1NC(N)=Nc2c(Cl)ccc(Cl)c21 (stereo not shown) [Example 23, 5,8-Dichloro-4-methyl-3,4-dihydro-quinazolin-2-ylamine]
